According to patent US20230174523A1, “BENZENESULFONAMIDE DERIVATIVES AS TRAP1 MODULATORS AND USES THEREOF” (Amathus Therapeutics, Inc., priority 2020, published 2023):

Tested on: primary rat dopaminergic neurons
Test: ROS production in primary dopaminergic TH-positive neurons injured with 6-OHDA
Assay type: cell-based
Settings: injury with 6-OHDA (20 μM, 4 h); FIG. 5
Experimental: Rat dopaminergic neurons were cultured as described by Visanji et al., 2008. Briefly, pregnant female rat of 15 days of gestation are sacrificed using a deep anesthesia with CO2 chamber and a cervical dislocation. The midbrains obtained from 15-day-old rat embryos are dissected under a microscope. The embryonic midbrains are removed and placed in ice-cold medium of Leibovitz (L15) containing 2% of Penicillin-Streptomycin (PS) and 1% of bovine serum albumin (BSA). The ventral portion of the mesencephalic flexure, a region of the developing brain rich in dopaminergic neurons, is used for the cell preparations.
The midbrains are dissociated by trypsinisation for 20 min at 37° C. (solution at a final concentration of 0.05% trypsin and 0.02% EDTA). The reaction is stopped by the addition of Dulbecco's modified Eagle's medium (DMEM) containing DNAase I grade II (0.5 mg/mL) and 10% of foetal calf serum (FCS). Cells are then mechanically dissociated by 3 passages through a 10 mL pipette. Cells are then centrifuged at 180×g for 10 min at +4° C. on a layer of BSA (3.5%) in L15 medium. […] Viable cells are counted in a Neubauer cytometer using the trypan blue exclusion test. […] Six wells per condition are assessed. […]

**Q.** `Cc1nn(C)c2sc(C(=O)Nc3ccc(F)c(S(=O)(=O)Nc4ccc(Cl)cc4)c3)cc12` [Compound 705] was tested. Which “reactive oxygen species (ROS) production” value did it give?
**A.** Its value is “reduction in ROS”.
